Source: patent US10259810B2, “N-sulfonylated pyrazolo[3,4-b]pyridin-6-carboxamides and method of use” (AbbVie S.à.r.l., priority 2015, dated 2019)

Columns and labels:
[1] = target: T1, ΔF508-CFTR (Homo sapiens, UniProt P13569, DEL508-508); assay: CFTR cell surface levels using HRP-tagged ΔF508-CFTR expressing CFBE cells, in the presence of a co-corrector; format: cell-based
T1 construct: host or cells: CFBE41o-, doxycycline-inducible
Method in brief: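 Chemiluminescent read-out of surface HRP (15 min, dark) after PBS washes. Activity is normalized as 100×(sample−DMSO)/(3 μM co-corrector alone−DMSO).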

[2] = target: T1, ΔF508-CFTR; assay: CFTR cell surface levels using HRP-tagged ΔF508-CFTR expressing CFBE cells, intrinsic corrector capacity; format: cell-based; set-up: % Activation: concentration or dose not given beside the values
Method in brief: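 Read-out: chemiluminescent HRP activity of ECL4-HRP-tagged ΔF508-CFTR at the cell surface, 15 min substrate in dark. Normalized as 100×(sample−DMSO)/(positive control−DMSO).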

[3] = HRP-tagged ΔF508-CFTR CFBE cells, in the presence of 3 μM co-corrector
[4] = HRP-tagged ΔF508-CFTR CFBE cells, in the presence of 3 μM co-corrector, read-out: EC50
[5] = HRP-tagged ΔF508-CFTR expressing CFBE41o- cells, compound alone (intrinsic corrector capacity), 20 hours at 33° C.
[6] = HRP-tagged ΔF508-CFTR expressing CFBE41o- cells, compound alone (intrinsic corrector capacity), 20 hours at 33° C., read-out: EC50

T1 sequence (P13569 with tags, fused parts or gaps DEL508-508): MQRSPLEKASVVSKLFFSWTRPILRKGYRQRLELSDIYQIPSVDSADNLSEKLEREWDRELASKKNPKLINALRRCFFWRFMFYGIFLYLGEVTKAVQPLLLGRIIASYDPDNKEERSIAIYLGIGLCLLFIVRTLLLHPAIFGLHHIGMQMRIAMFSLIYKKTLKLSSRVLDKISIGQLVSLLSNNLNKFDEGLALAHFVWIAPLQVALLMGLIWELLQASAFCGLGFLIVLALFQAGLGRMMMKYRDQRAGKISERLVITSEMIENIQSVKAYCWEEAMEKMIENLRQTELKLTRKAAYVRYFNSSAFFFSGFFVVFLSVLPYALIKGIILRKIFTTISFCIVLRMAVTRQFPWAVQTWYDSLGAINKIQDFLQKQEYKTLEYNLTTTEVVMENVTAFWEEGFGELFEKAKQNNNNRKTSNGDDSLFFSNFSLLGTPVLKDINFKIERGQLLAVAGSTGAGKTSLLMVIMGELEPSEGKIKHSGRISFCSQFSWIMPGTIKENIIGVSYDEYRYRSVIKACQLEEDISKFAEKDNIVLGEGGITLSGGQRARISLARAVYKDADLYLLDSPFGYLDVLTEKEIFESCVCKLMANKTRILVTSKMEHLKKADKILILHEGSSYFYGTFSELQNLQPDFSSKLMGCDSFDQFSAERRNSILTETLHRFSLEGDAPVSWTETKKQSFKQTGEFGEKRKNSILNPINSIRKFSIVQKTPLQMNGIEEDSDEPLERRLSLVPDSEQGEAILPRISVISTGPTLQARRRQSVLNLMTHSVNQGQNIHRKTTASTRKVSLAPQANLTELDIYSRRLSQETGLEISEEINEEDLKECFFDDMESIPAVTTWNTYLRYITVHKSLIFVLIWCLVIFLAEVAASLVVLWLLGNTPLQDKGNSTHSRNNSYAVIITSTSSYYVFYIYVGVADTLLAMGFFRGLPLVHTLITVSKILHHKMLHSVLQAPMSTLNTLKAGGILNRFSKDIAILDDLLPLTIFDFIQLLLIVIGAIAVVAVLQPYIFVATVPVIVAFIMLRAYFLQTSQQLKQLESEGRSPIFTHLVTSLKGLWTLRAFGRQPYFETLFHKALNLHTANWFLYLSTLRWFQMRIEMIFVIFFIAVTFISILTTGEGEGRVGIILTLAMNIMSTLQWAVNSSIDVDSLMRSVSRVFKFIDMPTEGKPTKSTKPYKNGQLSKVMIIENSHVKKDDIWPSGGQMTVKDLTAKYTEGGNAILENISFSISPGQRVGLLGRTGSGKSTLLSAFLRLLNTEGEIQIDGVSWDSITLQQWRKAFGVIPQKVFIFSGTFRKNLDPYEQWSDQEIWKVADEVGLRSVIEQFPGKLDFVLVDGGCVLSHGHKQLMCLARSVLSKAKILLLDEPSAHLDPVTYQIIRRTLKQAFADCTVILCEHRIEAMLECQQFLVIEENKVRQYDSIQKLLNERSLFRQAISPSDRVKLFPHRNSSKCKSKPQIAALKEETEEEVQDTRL

Compound | % Activation [1, 3] [%] | EC50 [1, 4] [nM] | % Activation [2, 5] [%] | EC50 [2, 6] [nM] | EC50 [1] [nM] | EC50 [2] [nM]
COC1CCN(c2cc(C(=O)NS(C)(=O)=O)nc3c2c(C(C)C)nn3-c2cccc(N3CCOCC3)n2)CC1 [Compound 217, N-(methanesulfonyl)-4-(4-methoxypiperidin-1-yl)-1-[6-(morpholin-4-yl)pyridin-2-yl]-3-(propan-2-yl)-1H-pyrazolo[3,4-b]pyridine-6-carboxamide] | 418.27 | 257 | 246.77 | 458 |  | 
CC(C)c1nn(-c2ccc(F)cc2)c2nc(C(=O)NS(C)(=O)=O)cc(N3CCC(N(C)C)CC3)c12 [Compound 319, 4-[4-(dimethylamino)piperidin-1-yl]-1-(4-fluorophenyl)-N-(methanesulfonyl)-3-(propan-2-yl)-1H-pyrazolo[3,4-b]pyridine-6-carboxamide] | 232 | 980 | 34.315 | 298 |  | 
CC(C)c1nn(-c2ccc(F)cc2)c2nc(C(=O)NS(C)(=O)=O)cc(OCCN(C(C)C)C3COC3)c12 [Compound 309, 1-(4-fluorophenyl)-N-(methanesulfonyl)-4-{2-[(oxetan-3-yl)(propan-2-yl)amino]ethoxy}-3-(propan-2-yl)-1H-pyrazolo[3,4-b]pyridine-6-carboxamide] | 303.6 | 224 | 149 | 444 |  | 
CCS(=O)(=O)NC(=O)c1cc(-c2ccc(N3CCOCC3)nc2)c2c(C(C)C)nn(-c3cccc(N(C)C)c3)c2n1 [Compound 54, 1-[3-(dimethylamino)phenyl]-N-(ethanesulfonyl)-4-[6-(morpholin-4-yl)pyridin-3-yl]-3-(propan-2-yl)-1H-pyrazolo[3,4-b]pyridine-6-carboxamide] | 593.12 | 464 | 386.92 | 780 |  | 
CCS(=O)(=O)NC(=O)c1cc(-c2ccc(N3CCOCC3)cc2)c2c(C(C)C)nn(C3CCCCC3)c2n1 [Compound 45, 1-cyclohexyl-N-(ethanesulfonyl)-4-[4-(morpholin-4-yl)phenyl]-3-(propan-2-yl)-1H-pyrazolo[3,4-b]pyridine-6-carboxamide] | 438.4 | 203 | 210.97 | 327 |  | 
CN(C)S(=O)(=O)NC(=O)c1cc(N2CCC3(CC2)CCN(C2CC2)CC3)c2c(C3CCC3)nn(-c3ccc(F)cc3)c2n1 [Compound 584, 3-cyclobutyl-4-(9-cyclopropyl-3,9-diazaspiro[5.5]undecan-3-yl)-N-(dimethylsulfamoyl)-1-(4-fluorophenyl)-1H-pyrazolo[3,4-b]pyridine-6-carboxamide] | 337.55 | 272 | 164.3 | 177 |  | 
CC(C)Oc1nn(C2CCCCC2)c2nc(C(=O)NS(=O)(=O)N(C)C)cc(-c3ccc(N4CCN(C(C)C)CC4)cc3)c12 [Compound 534, 1-cyclohexyl-N-(dimethylsulfamoyl)-3-[(propan-2-yl)oxy]-4-{4-[4-(propan-2-yl)piperazin-1-yl]phenyl}-1H-pyrazolo[3,4-b]pyridine-6-carboxamide] | 289.35 | 344 | 105 | 241 |  | 
CCS(=O)(=O)NC(=O)c1cc(-c2ccc(N(C)C)nc2)c2c(C(C)C)nn(C3CCCC3)c2n1 [Compound 56, 1-cyclopentyl-4-[6-(dimethylamino)pyridin-3-yl]-N-(ethanesulfonyl)-3-(propan-2-yl)-1H-pyrazolo[3,4-b]pyridine-6-carboxamide] | 336.75 | 838 | 122.1 | 1180 |  | 
CC(C)Oc1nn(C2CCCCC2)c2nc(C(=O)NS(C)(=O)=O)cc(-c3ccc(CN4CC5CN(C)CC5C4)cc3)c12 (centres unmarked) [Compound 636, 1-cyclohexyl-N-(methanesulfonyl)-4-{4-[(5-methylhexahydropyrrolo[3,4-c]pyrrol-2(1H)-yl)methyl]phenyl}-3-[(propan-2-yl)oxy]-1H-pyrazolo[3,4-b]pyridine-6-carboxamide] | 388.85 | 434 | 182.7 | 573 |  | 
CN1CCCN(C(=O)c2cc(N3CCC(CN4CCCC4)CC3)c3c(C4CCC4)nn(-c4ccccc4)c3n2)S1(=O)=O [Compound 660, 2-(3-cyclobutyl-1-phenyl-4-{4-[(pyrrolidin-1-yl)methyl]piperidin-1-yl}-1H-pyrazolo[3,4-b]pyridine-6-carbonyl)-6-methyl-1λ^6,2,6-thiadiazinane-1,1-dione] | 172.1 | 235 | 34.92 | 932 |  | 
CNS(=O)(=O)NC(=O)c1cc(N2CCC(N3CCOCC3)CC2)c2c(C3CCC3)nn(-c3ccc(F)cc3)c2n1 [Compound 517, 3-cyclobutyl-1-(4-fluorophenyl)-N-(methylsulfamoyl)-4-[4-(morpholin-4-yl)piperidin-1-yl]-1H-pyrazolo[3,4-b]pyridine-6-carboxamide] | 520.08 | 75.8 | 320.5 | 184 |  | 
O=C(NS(=O)(=O)CCCN1CCOCC1)c1cc(OCC2CCOCC2)c2c(C3CCC3)nn(-c3ccccc3)c2n1 [Compound 347, 3-cyclobutyl-N-[3-(morpholin-4-yl)propane-1-sulfonyl]-4-[(oxan-4-yl)methoxy]-1-phenyl-1H-pyrazolo[3,4-b]pyridine-6-carboxamide] | 301.15 |  | 131.4 |  | 54.3 | 263
COC1(C)CCN(c2cc(C(=O)NS(C)(=O)=O)nc3c2c(C(C)C)nn3-c2ccc(F)cc2)CC1 [Compound 173, 1-(4-fluorophenyl)-N-(methanesulfonyl)-4-(4-methoxy-4-methylpiperidin-1-yl)-3-(propan-2-yl)-1H-pyrazolo[3,4-b]pyridine-6-carboxamide] | 183.2 | 433 | 51.395 | 412 |  | 
CC(C)c1nn(-c2cccc(N3CC(C)(C)C3)c2)c2nc(C(=O)NS(C)(=O)=O)cc(-c3ccc(N4CCOCC4)cc3)c12 [Compound 43, 1-[3-(3,3-dimethylazetidin-1-yl)phenyl]-N-(methanesulfonyl)-4-[4-(morpholin-4-yl)phenyl]-3-(propan-2-yl)-1H-pyrazolo[3,4-b]pyridine-6-carboxamide] | 627 | 289 | 379.67 | 299 |  | 
COCC1CCN(c2cc(C(=O)NS(=O)(=O)CCN3C(=O)c4ccccc4C3=O)nc3c2c(C2CCC2)nn3-c2ccccc2)CC1 [Compound 260, 3-cyclobutyl-N-[2-(1,3-dioxoisoindolin-2-yl)ethylsulfonyl]-4-[4-(methoxymethyl)-1-piperidyl]-1-phenyl-pyrazolo[3,4-b]pyridine-6-carboxamide] | 664.07 | 130 | 473.35 | 1870 |  | 
COCCS(=O)(=O)NC(=O)c1cc(N2CCC(COC)CC2)c2c(C3CCC3)nn(-c3ccc(F)cc3)c2n1 [Compound 670, 3-cyclobutyl-1-(4-fluorophenyl)-N-(2-methoxyethanesulfonyl)-4-[4-(methoxymethyl)piperidin-1-yl]-1H-pyrazolo[3,4-b]pyridine-6-carboxamide] | 477.6 | 191 | 399.2 | 277 |  | 
COCC1CCN(c2cc(C(=O)NS(=O)(=O)CCO)nc3c2c(C2CCC2)nn3-c2ccccc2)CC1 [Compound 366, 3-cyclobutyl-N-(2-hydroxyethanesulfonyl)-4-[4-(methoxymethyl)piperidin-1-yl]-1-phenyl-1H-pyrazolo[3,4-b]pyridine-6-carboxamide] | 443.7 | 82.7 | 264 | 298 |  | 
CCOC(=O)N1CCC(NS(=O)(=O)NC(=O)c2cc(N3CCC(CN4CCCC4)CC3)c3c(C4CCC4)nn(-c4ccccc4)c3n2)CC1 [Compound 457, ethyl 4-{[(3-cyclobutyl-1-phenyl-4-{4-[(pyrrolidin-1-yl)methyl]piperidin-1-yl}-1H-pyrazolo[3,4-b]pyridine-6-carbonyl)sulfamoyl]amino}piperidine-1-carboxylate] | 508 | 139 | 272.2 | 128 |  | 
CN(C)S(=O)(=O)NC(=O)c1cc(N2CCC(N3CCCC(C(F)(F)F)C3)CC2)c2c(C3CCC3)nn(-c3ccc(F)cc3)c2n1 (centres unmarked) [Compound 571, 3-cyclobutyl-N-(dimethylsulfamoyl)-1-(4-fluorophenyl)-4-[3-(trifluoromethyl)[1,4'-bipiperidin]-1'-yl]-1H-pyrazolo[3,4-b]pyridine-6-carboxamide] | 487.9 | 77.8 | 268.15 | 129 |  | 
CC(C)c1nn(-c2ccc(F)cc2)c2nc(C(=O)NS(C)(=O)=O)cc(OCCCN(C)C)c12 [Compound 299, 4-[3-(dimethylamino)propoxy]-1-(4-fluorophenyl)-N-(methanesulfonyl)-3-(propan-2-yl)-1H-pyrazolo[3,4-b]pyridine-6-carboxamide] | 267.2 | 2510 | 81.41 | 3330 |  | 
